Data published in patent publication US8729113B2 (Hoffmann-La Roche Inc., priority 2008, dated 2014).

biological target: TAAR1 (Mus musculus (Mouse), UniProt Q923Y8); assay: Radioligand binding assay on TAAR1 (membranes of stably transfected HEK293 cells); conditions: competition with [3H]-rac-2-(1,2,3,4-tetrahydro-1-naphthyl)-2-imidazoline, 4° C., 30 min
Description: For the construction of expression plasmids the coding sequences of human, rat and mouse TAAR 1 were amplified from genomic DNA essentially as described by Lindemann et al.. The Expand High Fidelity PCR System (Roche Diagnostics) was used with 1.5 mM Mg^2+ and purified PCR products were cloned into pCR2.1—TOPO cloning vector (Invitrogen) following the instructions of the manufacturer. PCR products were subcloned into the pIRESneo2 vector (BD Clontech, Palo Alto, Calif.), and expression vectors were sequence verified before introduction in cell lines.
HEK293 cells (ATCC # CRL-1573) were cultured essentially as described Lindemann et al. (2005). For the generation of stably transfected cell lines HEK293 cells were transfected with the pIRESneo2 expression plasmids containing the TAAR coding sequences (described above) with Lipofectamine 2000 (Invitrogen) according to the instructions of the manufacturer, and 24 hrs post transfection the culture medium was supplemented with 1 mg/ml G418 (Sigma, Buchs, Switzerland). After a culture period of about 10 d clones were isolated, expanded and tested for responsiveness to trace amines (all compounds purchased from Sigma) with the cAMP Biotrak Enzyme immunoassay (EIA) System (Amersham) following the non-acetylation EIA procedure provided by the manufacturer. […] Membrane Preparation and Radioligand Binding
Cells at confluence were rinsed with ice-cold phosphate buffered saline without Ca^2+ and Mg^2+ containing 10 mM EDTA and pelleted by centrifugation at 1000 rpm for 5 min at 4° C. The pellet was then washed twice with ice-cold phosphate buffered saline and cell pellet was frozen immediately by immersion in liquid nitrogen and stored until use at −80° C. Cell pellet was then suspended in 20 ml HEPES-NaOH (20 mM), pH 7.4 containing 10 mM EDTA, and homogenized with a Polytron (PT 3000, Kinematica) at 10,000 rpm for 10 s. The homogenate was centrifuged at 48,000×g for 30 min at 4° C. and the pellet resuspended in 20 ml HEPES-NaOH (20 mM), pH 7.4 containing 0.1 mM EDTA (buffer A), and homogenized with a Polytron at 10,000 rpm for 10 s. The homogenate was then centrifuged at 48,000×g for 30 min at 4° C. and the pellet resuspended in 20 ml buffer A, and homogenized with a Polytron at 10,000 rpm for 10 s. Protein concentration was determined by the method of Pierce (Rockford, Ill.). The homogenate was then centrifuged at 48,000×g for 10 min at 4° C., resuspended in HEPES-NaOH (20 mM), pH 7.0 including MgCl2 (10 mM) and […] homogenized with a Polytron at 10,000 rpm for 10 s.
Binding assay was performed at 4° C. in a final volume of 1 ml, and with an incubation time of 30 min. The radioligand [^3H]-rac-2-(1,2,3,4-tetrahydro-1-naphthyl)-2-imidazoline was used at a concentration equal to the calculated Kd value of 60 nM to give a bound at around 0.1% of the total added radioligand concentration, and a specific binding which represented approximately 70-80% of the total binding. Non-specific binding was defined as the amount of [^3H]-rac-2-(1,2,3,4-tetrahydro-1-naphthyl)-2-imidazoline bound in the presence of the appropriate unlabelled ligand (10 μM). Competing ligands were tested in a wide range of concentrations […]. […] Each experiment was performed in duplicate. All incubations were terminated by rapid filtration through UniFilter-96 plates (Packard Instrument Company) and glass filter GF/C, pre-soaked for at least 2 h in polyethylenimine 0.3%, and using a Filtermate 96 Cell Harvester (Packard Instrument Company). The tubes and filters were then washed 3 times with 1 ml aliquots of cold buffer B. Filters were not dried and soaked in Ultima gold (45 μl/well, Packard Instrument Company) and bound radioactivity was counted by a TopCount Microplate Scintillation Counter (Packard Instrument Company).

Sequence of TAAR1 (Q923Y8 whole entry): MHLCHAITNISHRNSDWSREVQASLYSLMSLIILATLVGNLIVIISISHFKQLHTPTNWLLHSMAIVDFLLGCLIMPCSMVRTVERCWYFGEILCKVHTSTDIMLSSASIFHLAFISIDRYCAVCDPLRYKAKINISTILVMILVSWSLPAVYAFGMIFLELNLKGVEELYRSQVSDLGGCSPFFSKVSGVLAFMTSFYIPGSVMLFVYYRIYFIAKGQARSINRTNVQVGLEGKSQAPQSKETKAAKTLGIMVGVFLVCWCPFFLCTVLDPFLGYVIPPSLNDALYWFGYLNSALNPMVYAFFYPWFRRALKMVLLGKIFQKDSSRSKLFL

Q: For C[C@@H](C[C@H]1COC(N)=N1)Oc1ccc(Oc2ccccc2)cc1 [Example 79, (S)-4-[(S)-2-(4-Phenoxy-phenoxy)-propyl]-4,5-dihydro-oxazol-2-ylamine], which Ki is on record?
A: 0.0086 µM

Q: How did the Ki turn out when C[C@@H](C[C@H]1COC(N)=N1)Oc1ccc(Cl)c(F)c1 [Example 70, (S)-4-[(S)-2-(4-Chloro-3-fluoro-phenoxy)-propyl]-4,5-dihydro-oxazol-2-ylamine] was run?
A: 0.0036 µM

Q: For COc1cccc(OCC[C@H]2COC(N)=N2)c1 [Example 20, (S)-4-[2-(3-Methoxy-phenoxy)-ethyl]-4,5-dihydro-oxazol-2-ylamine], which Ki is on record?
A: 0.0025 µM

Q: How did the Ki turn out when NC1=N[C@@H](CCC2(c3ccc(Br)cc3)CC2)CO1 [Example 144, (S)-4-{2-[1-(4-Bromo-phenyl)-cyclopropyl]-ethyl}-4,5-dihydro-oxazol-2-ylamine] was run?
A: 0.0005 µM

Q: Which Ki does the source give for NC1=N[C@@H](CCOc2cccc(OC(F)(F)F)c2)CO1 [Example 19, (S)-4-[2-(3-Trifluoromethoxy-phenoxy)-ethyl]-4,5-dihydro-oxazol-2-ylamine] here?
A: 0.0021 µM

Q: C[C@@H](C[C@H]1COC(N)=N1)Oc1ccccc1 [Example 81] was tested. Which Ki did it give?
A: 0.0064 µM

Q: CC[C@@H](C[C@H]1COC(N)=N1)Oc1ccc(Cl)cc1 [Example 107, (S)-4-[(S)-2-(4-Chloro-phenoxy)-butyl]-4,5-dihydro-oxazol-2-ylamine] was tested. Which Ki did it give?
A: 0.001 µM

Q: Which Ki does the source give for NC1=N[C@@H](CCOc2cc(F)cc(F)c2)CO1 [Example 130, (S)-4-[2-(3,5-Difluoro-phenoxy)-ethyl]-4,5-dihydro-oxazol-2-ylamine] here?
A: 0.0007 µM

Q: With CC[C@@H](C[C@H]1COC(N)=N1)Oc1ccc(Cl)c(F)c1 [Example 113, (S)-4-[(S)-2-(4-Chloro-3-fluoro-phenoxy)-butyl]-4,5-dihydro-oxazol-2-ylamine] as the compound, how does the Ki read?
A: 0.0037 µM

Q: CC[C@@H](C[C@H]1COC(N)=N1)Oc1cc(F)c(F)cc1F [Example 152, (S)-4-[(S)-2-(2,4,5-Trifluoro-phenoxy)-butyl]-4,5-dihydro-oxazol-2-ylamine] was tested. Which Ki did it give?
A: 0.0029 µM

Q: For C[Si](C)(CC[C@H]1COC(N)=N1)c1ccc(Cl)cc1 [Example 67, (S)-4-{2-[(4-Chloro-phenyl)-dimethyl-silanyl]-ethyl}-4,5-dihydro-oxazol-2-ylamine], which Ki is on record?
A: 0.0046 µM

Q: How did the Ki turn out when NC1=N[C@@H](CCOc2cccc(Cl)c2)CO1 [Example 5, (S)-4-[2-(3-Chloro-phenoxy)-ethyl]-4,5-dihydro-oxazol-2-ylamine] was run?
A: 0.0003 µM

Q: Which Ki does the source give for C[C@@H](C[C@H]1COC(N)=N1)Oc1ccc(F)c(Cl)c1 [Example 72, (S)-4-[(S)-2-(3-Chloro-4-fluoro-phenoxy)-propyl]-4,5-dihydro-oxazol-2-ylamine] here?
A: 0.0024 µM

Q: With CC[C@@H](C[C@H]1COC(N)=N1)Oc1ccc(F)cc1F [Example 114, (S)-4-[(S)-2-(2,4-Difluoro-phenoxy)-butyl]-4,5-dihydro-oxazol-2-ylamine] as the compound, how does the Ki read?
A: 0.0019 µM

Q: N#Cc1cccc(OCC[C@H]2COC(N)=N2)c1 [Example 63, 3-[2-((S)-2-Amino-4,5-dihydro-oxazol-4-yl)-ethoxy]-benzonitrile] was tested. Which Ki did it give?
A: 0.001 µM

Q: How did the Ki turn out when CC[C@@H](C[C@H]1COC(N)=N1)Oc1ccc(Cl)c(Cl)c1 [Example 122, (S)-4-[(S)-2-(3,4-Dichloro-phenoxy)-butyl]-4,5-dihydro-oxazol-2-ylamine] was run?
A: 0.0007 µM

Q: Which Ki does the source give for NC1=N[C@@H](CCOc2ccc(F)c(Cl)c2)CO1 [Example 8, (S)-4-[2-(3-Chloro-4-fluoro-phenoxy)-ethyl]-4,5-dihydro-oxazol-2-ylamine] here?
A: 0.0002 µM

Q: With NC1=N[C@@H](CCOc2ccc(Cc3ccccc3)cc2)CO1 [Example 47, (S)-4-[2-(4-Benzyl-phenoxy)-ethyl]-4,5-dihydro-oxazol-2-ylamine] as the compound, how does the Ki read?
A: 0.0048 µM

Q: NC1=N[C@@H](CCOc2ccc(F)cc2F)CO1 [Example 11, (S)-4-[2-(2,4-Difluoro-phenoxy)-ethyl]-4,5-dihydro-oxazol-2-ylamine] was tested. Which Ki did it give?
A: 0.0011 µM

Q: Which Ki does the source give for NC1=N[C@@H](CCOc2cccc(-c3ccccc3)c2)CO1 [Example 33, (S)-4-[2-(Biphenyl-3-yloxy)-ethyl]-4,5-dihydro-oxazol-2-ylamine] here?
A: 0.0018 µM

Q: Which Ki does the source give for NC1=N[C@@H](CCOc2ccc(F)cc2)CO1 [Example 2, (S)-4-[2-(4-Fluoro-phenoxy)-ethyl]-4,5-dihydro-oxazol-2-ylamine] here?
A: 0.0028 µM

Q: How did the Ki turn out when C[Si](C)(CC[C@H]1COC(N)=N1)c1cccc(Cl)c1 [Example 61, (S)-4-{2-[(3-Chloro-phenyl)-dimethyl-silanyl]-ethyl}-4,5-dihydro-oxazol-2-ylamine] was run?
A: 0.0055 µM

Q: With NC1=N[C@@H](CCOc2ccc(Oc3ccccc3)cc2)CO1 [Example 36, (S)-4-[2-(4-Phenoxy-phenoxy)-ethyl]-4,5-dihydro-oxazol-2-ylamine] as the compound, how does the Ki read?
A: 0.0039 µM

Q: For NC1=N[C@@H](CCOc2ccc(Cl)cc2F)CO1 [Example 58, (S)-4-[2-(4-Chloro-2-fluoro-phenoxy)-ethyl]-4,5-dihydro-oxazol-2-ylamine], which Ki is on record?
A: 0.0041 µM

Q: With COc1ccc(OCC[C@H]2COC(N)=N2)cc1 [Example 59, (S)-4-[2-(4-Methoxy-phenoxy)-ethyl]-4,5-dihydro-oxazol-2-ylamine] as the compound, how does the Ki read?
A: 0.0076 µM

Q: How did the Ki turn out when NC1=N[C@@H](CCSc2ccc(F)cc2)CO1 [Example 150, (S)-4-[2-(4-Fluoro-phenylsulfanyl)-ethyl]-4,5-dihydro-oxazol-2-ylamine] was run?
A: 0.0007 µM

Q: CCC(CC[C@H]1COC(N)=N1)c1ccc(F)cc1 (stereo partly drawn) [Example 18, (4S)-4-[3-(4-Fluoro-phenyl)-pentyl]-4,5-dihydro-oxazol-2-ylamine] was tested. Which Ki did it give?
A: 0.0026 µM

Q: CC(OC[C@H]1COC(N)=N1)c1ccccc1 (stereo partly drawn) [Example 24, (4S)-4-(1-Phenyl-ethoxymethyl)-4,5-dihydro-oxazol-2-ylamine] was tested. Which Ki did it give?
A: 0.0084 µM

Q: With C[C@@H](C[C@H]1COC(N)=N1)Oc1ccc(Br)cc1 [Example 71, (S)-4-[(S)-2-(4-Bromo-phenoxy)-propyl]-4,5-dihydro-oxazol-2-ylamine] as the compound, how does the Ki read?
A: 0.0024 µM

Q: With NC1=N[C@@H](CCC2(c3ccc(Cl)cc3)CC2)CO1 [Example 30, (S)-4-{2-[1-(4-Chloro-phenyl)-cyclopropyl]-ethyl}-4,5-dihydro-oxazol-2-ylamine] as the compound, how does the Ki read?
A: 0.0004 µM

Q: How did the Ki turn out when CC(C)(CC[C@H]1COC(N)=N1)c1ccc(F)cc1 [Example 25, (S)-4-[3-(4-Fluoro-phenyl)-3-methyl-butyl]-4,5-dihydro-oxazol-2-ylamine] was run?
A: 0.003 µM

Q: CC[C@@H](C[C@H]1COC(N)=N1)Oc1ccccc1 [Example 109, (S)-4-((S)-2-Phenoxy-butyl)-4,5-dihydro-oxazol-2-ylamine] was tested. Which Ki did it give?
A: 0.0016 µM

Q: How did the Ki turn out when NC1=N[C@@H](CCOc2ccc(C(F)(F)F)cc2)CO1 [Example 88, (S)-4-[2-(4-Trifluoromethyl-phenoxy)-ethyl]-4,5-dihydro-oxazol-2-ylamine] was run?
A: 0.0048 µM

Q: Which Ki does the source give for NC1=N[C@@H](CCOc2ccc(F)c(F)c2)CO1 [Example 9, (S)-4-[2-(3,4-Difluoro-phenoxy)-ethyl]-4,5-dihydro-oxazol-2-ylamine] here?
A: 0.0012 µM

Q: Which Ki does the source give for NC1=N[C@@H](CCC2(c3cc(F)cc(Cl)c3)CC2)CO1 [Example 143, (S)-4-{2-[1-(3-Chloro-5-fluoro-phenyl)-cyclopropyl]-ethyl}-4,5-dihydro-oxazol-2-ylamine] here?
A: 0.0009 µM

Q: Which Ki does the source give for NC1=N[C@@H](CCOc2ccc(F)cc2Cl)CO1 [Example 10, (S)-4-[2-(2-Chloro-4-fluoro-phenoxy)-ethyl]-4,5-dihydro-oxazol-2-ylamine] here?
A: 0.0021 µM

Q: NC1=N[C@@H](CCOc2ccc(Br)cc2)CO1 [Example 55, (S)-4-[2-(4-Bromo-phenoxy)-ethyl]-4,5-dihydro-oxazol-2-ylamine] was tested. Which Ki did it give?
A: 0.0025 µM
